From patent US8445689B2, “Pesticides” (Dow AgroSciences, LLC., priority 2008, dated 2013)
Where two headings read alike, the source gives them in different places.

Key:
[1] = tested on: Green Peach Aphid (Myzus persicae); test: Insecticidal test for green peach aphid in foliar spray assay on cabbage; type: in vivo; details: 72 h, read-out: Rating against green peach aphid on cabbage (foliar spray)
Description: Compounds 1-67 were tested against green peach aphid using procedures described hereinafter.
Insecticidal Test for Green Peach Aphid (Myzus persicae) in Foliar Spray Assay
Cabbage seedlings grown in 3-inch pots, with 2-3 small (3-5 cm) true leaves, were used as test substrate. The seedlings were infested with 20-50 green peach aphids (wingless adult and nymph) 1-2 d prior to chemical application. Four seedlings were used for each treatment. Compounds (2 mg) were dissolved in 2 mL of acetone-methanol (1:1) solvent, forming stock solutions of 1000 ppm. The stock solutions were diluted 5× with 0.025% Tween 20 in H2O to obtain a solution at 200 ppm. A hand-held Devilbiss aspirator sprayer was used for spraying a solution to both sides of cabbage leaves until runoff. Reference plants (solvent check) were sprayed with the diluent only. Treated plants were held in a holding room for 3 d at approximately 23° C. and 40% RH prior to grading. Evaluation was conducted by counting the number of live aphids per plant under a microscope. Insecticidal activity was measured by using Abbott's correction formula: Corrected % Control=100*(X−Y)/X • where X=No. of live aphids on solvent check plants • Y=No. of live aphids on treated plants

[2] = 200 ppm foliar spray on cabbage seedlings, graded after 3 d, corrected % control (Abbott)

CS(=O)(=NC(=O)Nc1ccc(C(F)(F)F)cc1)c1ccc(Cl)cc1 (stereo not shown) [Compound 1, N-[(4-chlorophenyl)(methyl)oxido-λ^4-sulfanylidene]-N′-[4-(trifluoromethyl)phenyl]urea]
melting point: 131 to 134 °C

COc1ccc(NC(=S)N=S(C)(=O)C(C)c2ccc(C(F)(F)F)nc2)cc1 (stereo not shown) [Compound 5]
pest or weed control at 200 ppm [1, 2]: < 80%
melting point: 167 to 169 °C

CC(c1ccc(C(F)(F)F)nc1)S(C)(=O)=NC(=S)NC1CCCCC1 (stereo not shown) [Compound 7]
pest or weed control at 200 ppm [1, 2]: 80 to 100%
melting point: 170 to 172 °C

CC(c1ccc(C(F)(F)F)nc1)S(C)(=O)=NC(=S)NC(=O)OCC1c2ccccc2-c2ccccc21 (stereo not shown) [Compound 9]
pest or weed control at 200 ppm ([1]; foliar): 80 to 100%
melting point: 105 to 107 °C

CC(C)NC(=S)N=S(C)(=O)C(C)c1ccc(C(F)(F)F)nc1 (stereo not shown) [Compound 14]
pest or weed control at 200 ppm [1, 2]: 80 to 100%
melting point: 153 to 155 °C

CC(c1ccc(C(F)(F)F)nc1)S(C)(=O)=NC(=S)NC1CC1 (stereo not shown) [Compound 15]
pest or weed control at 200 ppm [1, 2]: 80 to 100%
melting point: 154 to 156 °C

CC(c1ccc(C(F)(F)F)nc1)S(C)(=O)=NC(=S)Nc1ccc(Cl)cc1 (stereo not shown) [Compound 20]
pest or weed control at 200 ppm [1, 2]: < 80%
melting point: 181 to 183 °C

CC(c1ccc(C(F)(F)F)nc1)S(C)(=O)=NC(=S)Nc1ccc(OC(F)(F)F)cc1 (stereo not shown) [Compound 21]
pest or weed control at 200 ppm [1, 2]: < 80%
melting point: 149 to 151 °C

CC(c1ccc(C(F)(F)F)nc1)S(C)(=O)=NC(N)=S (stereo not shown) [Compound 22, N-(methyl(oxido){1-[6-(trifluoromethyl)pyridin-3-yl]ethyl}-λ^4-sulfanylidene)thiourea]
pest or weed control at 200 ppm [1, 2]: 80 to 100%
melting point: 145 to 147 °C

CS(=O)(Cc1ccc(C(F)(F)F)nc1)=NC(=S)NC(=O)OCC1c2ccccc2-c2ccccc21 (stereo not shown) [Compound 28, 9H-Fluoren-9-ylmethyl[(methyl(oxido){[6-(trifluoromethyl)pyridin-3-yl]methyl}-λ^4-sulfanylidene)amino]carbonothioylcarbamate]
pest or weed control at 200 ppm ([1]; foliar): < 80%
melting point: 92 to 97 °C

CS(=O)(Cc1ccc(Cl)nc1)=NC(=S)NC(=O)OCC1c2ccccc2-c2ccccc21 (stereo not shown) [Compound 30, 9H-Fluoren-9-ylmethyl{[[(6-chloropyridin-3-yl)methyl](methyl)oxido-λ^4-sulfanylidene]amino}carbonothioylcarbamate]
pest or weed control at 200 ppm ([1]; foliar): < 80%
melting point: 98 to 101 °C

CS(=O)(Cc1ccc(Cl)nc1)=NC(N)=S (stereo not shown) [Compound 31, N-[[(6-chloropyridin-3-yl)methyl](methyl)oxido-λ^4-sulfanylidene]thiourea]
pest or weed control at 200 ppm [1, 2]: 80 to 100%
melting point: 155 to 158 °C

Cc1ccc(C(C)S(C)(=O)=NC(N)=S)cn1 (stereo not shown) [Compound 33, N-{methyl[1-(6-methylpyridin-3-yl)ethyl]oxido-λ^4-sulfanylidene}-thiourea]
pest or weed control at 200 ppm [1, 2]: 80 to 100%
melting point: 137 to 140 °C

CC(c1ccc(C(F)(F)F)cc1)S(C)(=O)=NC(=S)NC(=O)OCC1c2ccccc2-c2ccccc21 (stereo not shown) [Compound 34, 9H-Fluoren-9-ylmethyl[(methyl(oxido){1-[4-(trifluoromethyl)phenyl]-ethyl}-λ^4-sulfanylidene)amino]carbonothioylcarbamate]
pest or weed control at 200 ppm ([1]; foliar): < 80%
melting point: 86 to 93 °C

CC(c1ccc(C(F)(F)F)cc1)S(C)(=O)=NC(N)=S (stereo not shown) [Compound 35, N-(methyl(oxido){1-[4-(trifluoromethyl)phenyl]ethyl}-λ^4-sulfanylidene)thiourea]
pest or weed control at 200 ppm [1, 2]: < 80%
melting point: 166 to 168 °C

NC(=S)N=S1(=O)CCCC1c1ccc(Cl)nc1 (stereo not shown) [Compound 36, N-[2-(6-chloropyridin-3-yl)-1-oxidotetrahydro-1H-1λ^4-thien-1-ylidene]thiourea]
pest or weed control at 200 ppm [1, 2]: 80 to 100%
melting point: 168 to 172 °C

COC(=O)CCC(=O)NC(=S)N=S(C)(=O)C(C)c1ccc(C(F)(F)F)nc1 (stereo not shown) [Compound 37, methyl 4-({[(methyl(oxido){1-[6-(trifluoromethyl)pyridin-3-yl]ethyl}-λ^4-sulfanylidene)amino]carbonothioyl}amino)-4-oxobutanoate]
pest or weed control at 200 ppm [1, 2]: 80 to 100%
melting point: 131 to 133 °C

CC(c1ccc(C(F)(F)F)nc1)S(C)(=O)=N/C(N)=N/O (stereo not shown) [Compound 38, N″-hydroxy-N-(methyl(oxido){1-[6-(trifluoromethyl)pyridin-3-yl]ethyl}-λ^4-sulfanylidene)guanidine]
pest or weed control at 200 ppm [1, 2]: 80 to 100%
melting point: 157 to 159 °C

CS(=O)(Cc1ccc(Cl)nc1)=N/C(N)=N/O (stereo not shown) [Compound 39, N-[[(6-chloropyridin-3-yl)methyl](methyl)oxido-λ^4-sulfanylidene]-N″-hydroxyguanidine]
pest or weed control at 200 ppm [1, 2]: 80 to 100%
melting point: 156 to 158 °C

CC(C)O/N=C(\N)N=S(C)(=O)C(C/C=C/Cl)c1ccc(Cl)nc1 (stereo not shown) [Compound 64, N-[[(3E)-4-Chloro-1-(6-chloropyridin-3-yl)but-3-enyl](methyl)oxido-λ^4-sulfanylidene]-N″-isopropoxyguanidine]
pest or weed control at 200 ppm [1, 2]: < 80%

CC(c1ccc(C(F)(F)F)nc1)S(C)(=O)=NC(=O)C(F)F (stereo not shown) [Compound 66, 2,2-difluoro-N-(methyl(oxido){1-[6-(trifluoromethyl)pyridin-3-yl]ethyl}-λ^4-sulfanylidene)acetamide]
pest or weed control at 200 ppm [1, 2]: 80 to 100%

CC(c1ccc(C(F)(F)F)nc1)S(C)(=O)=NC(=O)C(C)(C)C (stereo not shown) [Compound 67, 2,2-dimethyl-N-(methyl(oxido){1-[6-(trifluoromethyl)pyridin-3-yl]ethyl}-λ^4-sulfanylidene)propanamide]
pest or weed control at 200 ppm [1, 2]: < 80%
